According to PubChem BioAssay (NCI):
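Growth conditions: 96-well plates. Treatment: test compound, 48 hours, 5 concentrations. Analysis: linear interpolation between bracketing concentrations; unreached endpoints set to highest concentration. At the GI50, growth is halved. TGI marks complete inhibition of growth.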

Assays:
Assay in all cases: NCI-60 cell line screen, 48 h
HCC-2998 colon = test system: HCC-2998 colon
T-47D breast = test system: T-47D breast
PC-3 prostate = test system: PC-3 prostate
MDA-MB-231 breast = test system: MDA-MB-231 breast
RXF 393 renal = test system: RXF 393 renal
SF-539 CNS = test system: SF-539 CNS
RPMI-8226 leukemia = test system: RPMI-8226 leukemia
NCI-H23 lung = test system: NCI-H23 lung
NCI-H226 lung = test system: NCI-H226 lung
SF-268 CNS = test system: SF-268 CNS
A549 NSCLC = test system: A549 NSCLC
UACC-257 melanoma = test system: UACC-257 melanoma
UO-31 renal = test system: UO-31 renal
SF-295 CNS = test system: SF-295 CNS
U251 CNS = test system: U251 CNS
SK-OV-3 ovarian = test system: SK-OV-3 ovarian
SK-MEL-28 melanoma = test system: SK-MEL-28 melanoma
KM12 colon = test system: KM12 colon
NCI/ADR-RES ovarian = test system: NCI/ADR-RES ovarian
HS 578T breast = test system: HS 578T breast
MDA-MB-435 = test system: MDA-MB-435
UACC-62 melanoma = test system: UACC-62 melanoma
MOLT-4 leukemia = test system: MOLT-4 leukemia
BT-549 breast = test system: BT-549 breast
IGROV1 ovarian = test system: IGROV1 ovarian
EKVX NSCLC = test system: EKVX NSCLC
SNB-19 CNS = test system: SNB-19 CNS
OVCAR-4 ovarian = test system: OVCAR-4 ovarian
NCI-H522 lung = test system: NCI-H522 lung
COLO 205 colon = test system: COLO 205 colon
SK-MEL-2 melanoma = test system: SK-MEL-2 melanoma
HT29 colon = test system: HT29 colon
HOP-62 NSCLC = test system: HOP-62 NSCLC
LOX IMVI melanoma = test system: LOX IMVI melanoma
NCI-H460 lung = test system: NCI-H460 lung
CCRF-CEM leukemia = test system: CCRF-CEM leukemia
786-0 renal = test system: 786-0 renal
MCF7 breast = test system: MCF7 breast
HCT-15 colon = test system: HCT-15 colon
HOP-92 NSCLC = test system: HOP-92 NSCLC
K-562 leukemia = test system: K-562 leukemia
HL-60(TB) leukemia = test system: HL-60(TB) leukemia
DU-145 prostate = test system: DU-145 prostate
OVCAR-8 ovarian = test system: OVCAR-8 ovarian
A498 renal = test system: A498 renal
SN12C renal = test system: SN12C renal
OVCAR-5 ovarian = test system: OVCAR-5 ovarian
TK-10 renal = test system: TK-10 renal
M14 melanoma = test system: M14 melanoma
CAKI-1 renal = test system: CAKI-1 renal
SK-MEL-5 melanoma = test system: SK-MEL-5 melanoma
SW-620 colon = test system: SW-620 colon
HCT-116 colon = test system: HCT-116 colon
OVCAR-3 ovarian = test system: OVCAR-3 ovarian
MALME-3M melanoma = test system: MALME-3M melanoma
SNB-75 CNS = test system: SNB-75 CNS
ACHN renal = test system: ACHN renal

COC(=O)c1ccc([C@H]2c3[nH]c4ccccc4c3C[C@H](C(=O)OC)N2C(=O)CCl)cc1
GI50 (HCC-2998 colon): 1750 nM
TGI (HCC-2998 colon): 3380 nM
GI50 (T-47D breast): 2230 nM
TGI (T-47D breast): 13.3 µM
GI50 (PC-3 prostate): 845 nM
TGI (PC-3 prostate): 4.3 µM
GI50 (MDA-MB-231 breast): 109 nM
TGI (MDA-MB-231 breast): 551 nM
GI50 (RXF 393 renal): 74 nM
TGI (RXF 393 renal): 0.723 µM
GI50 (SF-539 CNS): 89.9 nM
TGI (SF-539 CNS): 0.226 µM
GI50 (RPMI-8226 leukemia): 40.5 nM
TGI (RPMI-8226 leukemia): 386 nM
GI50 (NCI-H23 lung): 54.9 nM
TGI (NCI-H23 lung): 375 nM
GI50 (NCI-H226 lung): 2210 nM
TGI (NCI-H226 lung): 5.94 µM
GI50 (SF-268 CNS): 1900 nM
TGI (SF-268 CNS): 4.61 µM
GI50 (A549 NSCLC): 1630 nM
TGI (A549 NSCLC): 10.5 µM
GI50 (UACC-257 melanoma): 3.87 µM
TGI (UACC-257 melanoma): 14.5 µM
GI50 (UO-31 renal): 28.3 nM
TGI (UO-31 renal): 108 nM
GI50 (SF-295 CNS): 80.4 nM
TGI (SF-295 CNS): 216 nM
GI50 (U251 CNS): 641 nM
TGI (U251 CNS): 1990 nM
GI50 (SK-OV-3 ovarian): 1720 nM
TGI (SK-OV-3 ovarian): 3.59 µM
GI50 (SK-MEL-28 melanoma): 2350 nM
TGI (SK-MEL-28 melanoma): 6.92 µM
GI50 (KM12 colon): 1030 nM
TGI (KM12 colon): 4.39 µM
GI50 (NCI/ADR-RES ovarian): 74.4 nM
TGI (NCI/ADR-RES ovarian): 333 nM
GI50 (HS 578T breast): 1480 nM
TGI (HS 578T breast): 5.98 µM
GI50 (MDA-MB-435): 2740 nM
TGI (MDA-MB-435): 11.1 µM
GI50 (UACC-62 melanoma): 752 nM
TGI (UACC-62 melanoma): 2210 nM
GI50 (MOLT-4 leukemia): 268 nM
TGI (MOLT-4 leukemia): 857 nM
GI50 (BT-549 breast): 1230 nM
TGI (BT-549 breast): 2.57 µM
GI50 (IGROV1 ovarian): 85.8 nM
TGI (IGROV1 ovarian): 0.277 µM
GI50 (EKVX NSCLC): 820 nM
TGI (EKVX NSCLC): 3.4 µM
GI50 (SNB-19 CNS): 4.39 µM
TGI (SNB-19 CNS): 16 µM
GI50 (OVCAR-4 ovarian): 2500 nM
TGI (OVCAR-4 ovarian): 9.87 µM
GI50 (NCI-H522 lung): 19.7 nM
TGI (NCI-H522 lung): 43.5 nM
GI50 (COLO 205 colon): 2330 nM
TGI (COLO 205 colon): 6.14 µM
GI50 (SK-MEL-2 melanoma): 2030 nM
TGI (SK-MEL-2 melanoma): 4.89 µM
GI50 (HT29 colon): 298 nM
TGI (HT29 colon): 1110 nM
GI50 (HOP-62 NSCLC): 997 nM
TGI (HOP-62 NSCLC): 4.44 µM
GI50 (LOX IMVI melanoma): < 10 nM
TGI (LOX IMVI melanoma): < 0.01 µM
GI50 (NCI-H460 lung): 1630 nM
TGI (NCI-H460 lung): 3.59 µM
GI50 (CCRF-CEM leukemia): 22.3 nM
TGI (CCRF-CEM leukemia): 83.9 nM
GI50 (786-0 renal): < 10 nM
TGI (786-0 renal): < 0.0169 µM
GI50 (MCF7 breast): 1750 nM
TGI (MCF7 breast): 4950 nM
GI50 (HCT-15 colon): 1040 nM
TGI (HCT-15 colon): 2650 nM
GI50 (HOP-92 NSCLC): 23 nM
TGI (HOP-92 NSCLC): 0.063 µM
GI50 (K-562 leukemia): 1970 nM
TGI (K-562 leukemia): > 28 µM
GI50 (HL-60(TB) leukemia): 113 nM
TGI (HL-60(TB) leukemia): 301 nM
GI50 (DU-145 prostate): 2230 nM
TGI (DU-145 prostate): 12.3 µM
GI50 (OVCAR-8 ovarian): 1360 nM
TGI (OVCAR-8 ovarian): 7.93 µM
GI50 (A498 renal): 447 nM
TGI (A498 renal): 888 nM
GI50 (SN12C renal): 1260 nM
TGI (SN12C renal): 2890 nM
GI50 (OVCAR-5 ovarian): 1440 nM
TGI (OVCAR-5 ovarian): 3.65 µM
GI50 (TK-10 renal): 2320 nM
TGI (TK-10 renal): 7.66 µM
GI50 (M14 melanoma): 1940 nM
TGI (M14 melanoma): 5.11 µM
GI50 (CAKI-1 renal): 262 nM
TGI (CAKI-1 renal): 2510 nM
GI50 (SK-MEL-5 melanoma): 2300 nM
TGI (SK-MEL-5 melanoma): 5.93 µM
GI50 (SW-620 colon): 1490 nM
TGI (SW-620 colon): 3.34 µM
GI50 (HCT-116 colon): 1470 nM
TGI (HCT-116 colon): 2980 nM
GI50 (OVCAR-3 ovarian): 672 nM
TGI (OVCAR-3 ovarian): 2120 nM
GI50 (MALME-3M melanoma): 157 nM
TGI (MALME-3M melanoma): 438 nM
GI50 (SNB-75 CNS): 334 nM
TGI (SNB-75 CNS): 0.843 µM
GI50 (ACHN renal): 234 nM
TGI (ACHN renal): 2.17 µM

N#Cc1cc(-c2nc3cc(F)ccc3s2)ccc1N
TGI (HCC-2998 colon): 60.4 nM
TGI (T-47D breast): 0.22 µM
TGI (PC-3 prostate): > 100 µM
TGI (MDA-MB-231 breast): > 85100 nM
TGI (RXF 393 renal): 14.1 µM
TGI (SF-539 CNS): 56.7 µM
TGI (RPMI-8226 leukemia): > 100000 nM
TGI (NCI-H23 lung): 848 nM
TGI (NCI-H226 lung): 79.3 µM
TGI (SF-268 CNS): > 78.3 µM
TGI (A549 NSCLC): > 68.4 µM
TGI (UACC-257 melanoma): > 100 µM
TGI (UO-31 renal): > 100000 nM
TGI (SF-295 CNS): > 100000 nM
TGI (U251 CNS): > 82100 nM
TGI (SK-OV-3 ovarian): > 92.3 µM
TGI (SK-MEL-28 melanoma): > 100 µM
TGI (KM12 colon): > 32.8 µM
TGI (NCI/ADR-RES ovarian): > 100000 nM
TGI (HS 578T breast): > 100 µM
TGI (MDA-MB-435): > 100 µM
TGI (UACC-62 melanoma): > 87700 nM
TGI (MOLT-4 leukemia): > 100000 nM
TGI (BT-549 breast): 29.1 µM
TGI (IGROV1 ovarian): 13.9 µM
TGI (EKVX NSCLC): 98.8 µM
TGI (SNB-19 CNS): > 66.6 µM
TGI (OVCAR-4 ovarian): > 93.5 µM
TGI (NCI-H522 lung): > 100000 nM
TGI (COLO 205 colon): > 100 µM
TGI (SK-MEL-2 melanoma): > 66.8 µM
TGI (HT29 colon): > 100000 nM
TGI (HOP-62 NSCLC): > 100 µM
TGI (LOX IMVI melanoma): > 100 µM
TGI (NCI-H460 lung): 17.8 µM
TGI (CCRF-CEM leukemia): > 100000 nM
TGI (786-0 renal): > 100 µM
TGI (MCF7 breast): 583 nM
TGI (HCT-15 colon): > 100000 nM
TGI (HOP-92 NSCLC): 29.6 µM
TGI (K-562 leukemia): > 100 µM
TGI (HL-60(TB) leukemia): > 100000 nM
TGI (DU-145 prostate): > 100 µM
TGI (OVCAR-8 ovarian): > 100 µM
TGI (A498 renal): > 56400 nM
TGI (SN12C renal): > 100000 nM
TGI (OVCAR-5 ovarian): 2.9 µM
TGI (TK-10 renal): 1.69 µM
TGI (M14 melanoma): 99.7 µM
TGI (CAKI-1 renal): > 100000 nM
TGI (SK-MEL-5 melanoma): > 100 µM
TGI (SW-620 colon): > 100 µM
TGI (HCT-116 colon): > 100000 nM
TGI (OVCAR-3 ovarian): > 100000 nM
TGI (MALME-3M melanoma): > 100000 nM
TGI (SNB-75 CNS): 6.68 µM
TGI (ACHN renal): 62.5 µM
